Laboratory results as given in US8906953B2, “Pyrrolidine substitute flavones for the treatment of inflammatory disorders” (Piramal Enterprises Limited, priority 2010, dated 2014).

How the values were obtained:
p38 MAP kinase = target: T1, p38 MAP kinase (Homo sapiens, UniProt Q16539); assay: p38 MAP kinase inhibition, western blot in anisomycin-stimulated Jurkat cells; type: cell-based; conditions: 0.1 μM, anisomycin 10 μg/mL 30 minutes
T1 construct: endogenous in cells; host or cells: Jurkat T-cells (ATCC)
T1 sequence (Q16539 whole entry): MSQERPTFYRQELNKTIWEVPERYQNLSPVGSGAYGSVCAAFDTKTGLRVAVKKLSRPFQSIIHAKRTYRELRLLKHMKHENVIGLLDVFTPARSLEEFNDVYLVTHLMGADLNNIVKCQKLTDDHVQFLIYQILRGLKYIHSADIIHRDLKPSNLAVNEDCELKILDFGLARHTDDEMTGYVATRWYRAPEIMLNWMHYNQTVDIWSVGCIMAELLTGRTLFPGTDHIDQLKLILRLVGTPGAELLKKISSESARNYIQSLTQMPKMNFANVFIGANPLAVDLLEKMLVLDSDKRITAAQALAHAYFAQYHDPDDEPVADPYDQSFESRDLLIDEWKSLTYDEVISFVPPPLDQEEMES
Experimental: The method for identifying inhibitors of p38 mitogen-activated protein (MAP) Kinase was designed as in reference, Journal of Lipid Research, 1999, 40, 1911-1919, the disclosure of which is incorporated herein by reference for the teaching of the assay.
Human Jurkat T-cells from American Type Culture Collection (ATCC) were cultivated in Rosewell Park Memorial Institute (RPMI) medium supplemented with 10% fetal bovine serum (FBS), penicillin (100 U/mL) and streptomycin (100 μg/mL) at 37° C. in humidified atmosphere of 95% air-5% CO2. Culture medium was changed every 2-3 days and always 24 hours before harvest. RPMI medium, FBS, CellLytic, anti-β-actin, sodium orthovanadate and anisomycin were purchased from Sigma-Aldrich (USA). TNF-α was purchased from R & D Systems (USA). Complete Protease inhibitor cocktail was procured from Roche.
Jurkat cells were preincubated with vehicle or the compound of example 3 (0.1 μM) for 1 hour in a 37° C., CO2 incubator. For MAPK experiments, the cells were stimulated with anisomycin (10 μg/mL) for 30 minutes. SB 203580 was used as a standard (1 μM). […] Aliquots of the resulting extracts were analyzed for their protein content using the Coomassie Plus Protein Assay Reagent (Pierce) following manufacturer's instructions. […]

TNF-α = assay: LPS-induced TNF-α release in Balb/c mice; type: in vivo; conditions: Mus musculus, plasma 1.5 hours post LPS (1 mg/kg i.p.)
Experimental: The assay was designed as in reference, J. Med. Bio. Res., 1997, 30, 1199-1207, the disclosure of which is incorporated herein by reference for the teaching of the assay. […] All suspensions were freshly prepared in 0.5% CMC. One hour later, LPS (1 mg/kg) (Escherchia coli, serotype 0127:B8, Sigma Chemical Co., St. Louis, Mo.) dissolved in sterile pyrogen-free saline was administered intra-peritoneally to the control group, standard treatment group (Rolipram, 30 mg/kg, p.o.) and test groups (compound of example 3), except the negative control group, which received normal saline. Blood samples were collected from anesthetized mice, with heparin as an anti-coagulant (25 IU per sample) 1.5 hours post LPS challenge. […] Percent inhibition of TNF-α release was calculated by comparing the TNF-α levels of the treatment groups with those of the control group.

[1] = test system: arthritic (CIA) DBA/1J mice; assay: Collagen induced arthritis in mouse; type: in vivo; conditions: 50 mg/kg oral twice daily, 23 days
Experimental: The assay was designed as in reference, J. Exp. Med., 1985, 162, 637-646, the disclosure of which is incorporated herein by reference for the teaching of the assay.
Male DBA/1J mice (originally procured from Jackson Laboratories, USA), aged 8-10 weeks were immunized with an emulsion equivalent to 200 μg of type II collagen in Freund's Complete Adjuvant, injected intradermally at the base of the tail. A booster shot with the same emulsion was given 21 days later. A group of naïve mice was maintained alongside.
From day 23 to day 56, mice were examined daily once for the signs of rheumatoid arthritis, using the Articular Index and paw thickness as parameters. Articular Index scoring was performed employing the following criteria:
Mice with a minimum hind paw score of 2 were inducted into the study.
Mice were randomized into the various study groups and orally administered the vehicle (0.5% CMC, 1 ml/kg), test compound (compound of example 3, 50 mg/kg twice daily) and standard compound (Enbrel, 3 mg/kg, s.c., once daily). […] The dosing of the compounds was done for 23 days.
The following parameters were observed and recorded daily, • 1. Body weight • 2. Articular index • 3. Paw thickness in mm using a tension free caliper • 4. Any significant observation regarding the condition of the animal. […]
The results are graphically depicted in FIG. 3 (Articular index versus days of treatment) and FIG. 4 (Paw thickness versus days of treatment). Data obtained during the course of this study (articular index and paw thickness) was statistically evaluated by applying Mann-Whitney U test.
Mice were humanely euthanized and the hind paws were harvested from each animal, fixed in 10% neutral buffered formalin, decalcified in 5% formic acid and embedded in paraffin. Section […] were stained with either hematoxylin and eosin or safranin 0 and evaluated microscopically. Histopathological changes were scored as follows: mild (score=1), moderate (score=2) or severe (score=3) for the parameters of cellular infiltration, bone erosions and cartilage damage, graded separately. […]

SMILES: CN1CC[C@@H](c2c(O)cc(O)c3c(=O)cc(-c4ccc(C(F)(F)F)cc4Cl)oc23)[C@@H]1CO.Cl [Compound of example 3, (+)-trans-2-(2-Chloro-4-trifluoromethyl-phenyl)-5,7-dihydroxy-8-(2-hydroxymethyl-1-methyl-pyrrolidin-3-yl)-chromen-4-one hydrochloride]
- p38 MAP kinase inhibition (western blot) (p38 MAP kinase): not an inhibitor of p38 MAP kinase
- inhibition at 12.5 mg/kg (TNF-α; 12.5 mg/kg oral): 53.2 ± 12.5%
- inhibition at 25 mg/kg (TNF-α; 25 mg/kg oral): 66.8 ± 11.5%
- inhibition at 50 mg/kg (TNF-α; 50 mg/kg oral): 82 ± 4.88%
- inhibition at 75 mg/kg (TNF-α; 75 mg/kg oral): 77.3 ± 8.61%
- inhibition at 100 mg/kg (TNF-α; 100 mg/kg oral): 92.6 ± 3.5%
- Severity of disease by articular index and paw thickness [1]: trend towards ameriolation of the disease
- Histopathological evaluation of hind paws ([1]; cellular infiltration, bone erosions, cartilage damage): potential anti-arthritic effect
